Reference: ChEMBL document CHEMBL1201862, “PubChem BioAssay data set” (2004)
Calls of active or inactive are those of the source.

Assays:
[1] = target: T1, Corticotropin-releasing factor receptor 2/Corticotropin-releasing factor-binding protein (Homo sapiens, UniProt P24387+Q13324); experiment: Dose Response confirmation of uHTS hits for small molecule antagonists of the CRF-binding protein and CRF-R2 receptor complex.; type: functional; conditions: read-out: IC50_Mean
T1 sequence (Q13324 whole entry): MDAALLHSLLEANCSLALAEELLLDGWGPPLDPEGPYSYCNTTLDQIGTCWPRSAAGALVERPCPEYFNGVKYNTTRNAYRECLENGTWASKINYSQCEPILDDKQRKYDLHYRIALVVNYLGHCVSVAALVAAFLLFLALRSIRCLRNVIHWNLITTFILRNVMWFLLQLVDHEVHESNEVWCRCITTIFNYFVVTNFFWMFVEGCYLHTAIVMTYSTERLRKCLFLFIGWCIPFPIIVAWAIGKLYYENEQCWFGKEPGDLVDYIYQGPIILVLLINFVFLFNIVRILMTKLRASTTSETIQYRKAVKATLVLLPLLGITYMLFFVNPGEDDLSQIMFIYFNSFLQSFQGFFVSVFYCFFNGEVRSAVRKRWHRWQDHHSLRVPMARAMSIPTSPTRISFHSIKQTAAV
T1 sequence (P24387 whole entry): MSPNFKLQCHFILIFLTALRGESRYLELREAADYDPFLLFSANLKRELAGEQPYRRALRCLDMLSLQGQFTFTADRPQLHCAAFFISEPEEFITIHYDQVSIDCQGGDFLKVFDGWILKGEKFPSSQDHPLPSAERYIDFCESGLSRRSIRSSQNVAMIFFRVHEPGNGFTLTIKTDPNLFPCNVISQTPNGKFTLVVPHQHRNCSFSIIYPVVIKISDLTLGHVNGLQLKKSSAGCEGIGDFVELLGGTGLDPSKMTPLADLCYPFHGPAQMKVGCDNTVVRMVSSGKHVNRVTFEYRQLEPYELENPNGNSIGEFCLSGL

[2] = test system: H4; experiment: Luminescence Cell-Based Dose Response HTS to Identify Activators of 5'UTR Stem-Loop Driven Prion Protein mRNA Translation in H4 Neuroglioblastoma Cells. [Related pubchem assays: 1829 (Project Summary), 1814 (Primary HTS)]; type: functional; conditions: Homo sapiens
[3] = Luminescence Cell-Based Dose Confirmation HTS to Identify Activators of 5'UTR Stem-Loop Driven Alpha-Synuclein mRNA Translation in H4 Neuroglioblastoma Cells. [Related pubchem assays: 1829 (Project Summary), 1814 (Primary HTS)]; type: functional
[4] = target: T1, Corticotropin-releasing factor receptor 2/Corticotropin-releasing factor-binding protein; experiment: activators of CRF receptor 2 with binding protein – uHTS hits, confirmation (AID 602473); type: functional; conditions: read-out: EC50_Mean
[5] = Luminescence Cell-Based Dose Response HTS to Identify Activators of Luciferase Translation or Activity in H4 […] Cells. [Related pubchem assays: 1829 (Project Summary), 1814 (Primary HTS)]; type: functional
[6] = microbe, parasite or virus in culture; type: functional; conditions: Mycobacterium tuberculosis
[7] = target: T2, Polyadenylate-binding protein 1 (Homo sapiens, UniProt P11940); experiment: PABP1 MLLE–PAM2 interaction inhibitors, dose response, miRNA deadenylation inhibitor project, biochemical, fluorescence polarization, Cy5-PAM2 peptide, secondary (AID 602260); type: functional; conditions: read-out: IC50_Mean
T2 sequence (P11940 whole entry): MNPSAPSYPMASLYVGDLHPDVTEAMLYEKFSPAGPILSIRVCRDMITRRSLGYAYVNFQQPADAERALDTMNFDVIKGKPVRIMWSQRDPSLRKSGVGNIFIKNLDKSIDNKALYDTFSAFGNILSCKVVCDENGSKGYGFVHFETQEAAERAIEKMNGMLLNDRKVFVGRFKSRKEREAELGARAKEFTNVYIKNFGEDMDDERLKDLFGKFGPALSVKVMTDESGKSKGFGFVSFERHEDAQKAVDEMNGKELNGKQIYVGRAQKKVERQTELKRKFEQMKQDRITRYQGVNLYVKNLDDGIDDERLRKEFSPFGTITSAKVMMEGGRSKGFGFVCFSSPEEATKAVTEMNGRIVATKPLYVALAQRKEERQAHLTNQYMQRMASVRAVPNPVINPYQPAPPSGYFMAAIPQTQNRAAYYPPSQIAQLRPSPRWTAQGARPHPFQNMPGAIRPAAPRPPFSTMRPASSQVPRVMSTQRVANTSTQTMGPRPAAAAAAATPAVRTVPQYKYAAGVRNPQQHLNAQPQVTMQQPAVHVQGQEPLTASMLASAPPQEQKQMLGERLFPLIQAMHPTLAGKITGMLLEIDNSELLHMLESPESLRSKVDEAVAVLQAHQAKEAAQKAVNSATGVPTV

[8] = target: T2, Polyadenylate-binding protein 1; experiment: PABP1 MLLE–PAM2 binding inhibitor potency, dose response, biochemical, fluorescence polarization, FITC-PAM2 peptide (AID 602259); type: functional; conditions: read-out: IC50_Mean
[9] = target: Cytochrome P450 2C19 (Homo sapiens, UniProt P33261); experiment: Cytochrome panel assay with activity outcomes. Panel member name: p450-cyp2c19 Compounds with AC50 equal or less than 10 uM are considered active; type: functional; conditions: read-out: AC50
Sequence of Cytochrome P450 2C19 (P33261 whole entry): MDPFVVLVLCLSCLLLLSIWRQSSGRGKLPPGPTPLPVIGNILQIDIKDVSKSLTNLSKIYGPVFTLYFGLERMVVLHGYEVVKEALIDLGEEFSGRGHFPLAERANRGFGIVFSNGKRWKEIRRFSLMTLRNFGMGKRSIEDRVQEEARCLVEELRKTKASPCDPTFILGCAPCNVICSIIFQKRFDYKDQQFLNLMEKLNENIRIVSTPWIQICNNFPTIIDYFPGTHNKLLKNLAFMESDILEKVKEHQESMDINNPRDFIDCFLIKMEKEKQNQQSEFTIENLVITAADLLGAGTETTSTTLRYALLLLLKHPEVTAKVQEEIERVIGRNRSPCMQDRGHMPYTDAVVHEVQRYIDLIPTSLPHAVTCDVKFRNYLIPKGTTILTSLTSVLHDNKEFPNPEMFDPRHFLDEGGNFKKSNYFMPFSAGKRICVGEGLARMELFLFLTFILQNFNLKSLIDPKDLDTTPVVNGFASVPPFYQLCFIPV

[10] = P. falciparum Dd2 growth inhibitors, dose response, SYBR Green, cherry-picked samples (AID 1159567); type: functional, cell-based

| SMILES | EC50 [2] | EC50 [3] | EC50 [5] | CC50 [6] | other results |
| --- | --- | --- | --- | --- | --- |
| Cc1c(-c2ccc(Cl)cc2)[n+]([O-])c(-c2ccccc2)c[n+]1[O-] | > 120 µM (not active) | > 120 µM (not active) | > 120 µM (not active) | – | IC50 [1]: > 47.1 µM (inactive); EC50 [4]: > 53 µM (inactive) |
| Cc1ccc(C(=O)c2nc3c(n2O)CCCC3)cc1 | 25.7 µM (active) | > 120 µM (not active) | > 120 µM (not active) | – | – |
| O=C(/C=C/c1ccc(O)c([N+](=O)[O-])c1)c1ccc2ccccc2c1 | 17.9 µM (active) | 16.6 µM (active) | 14.5 µM (active) | > 40 µM (active) | – |
| COc1cccc(Nc2ccc([N+](=O)[O-])c3nonc23)c1 | – | – | – | > 40 µM (active) | – |
| CC(Oc1ccc2c(c1)c1ccnc3c4ccccc4c(=O)n2c13)C(=O)NCCN1CCOCC1 (stereo not given) | > 120 µM (not active) | 19.6 µM (active) | 12.5 µM (active) | – | – |
| COc1cccc(NC(=S)N/N=C2/CCCCc3ccccc32)c1 | 33.6 µM (active) | 7.09 µM (active) | 8.02 µM (active) | – | IC50 [7]: > 66 µM (inactive); IC50 [8]: > 66 µM (inactive) |
| OCC(O)/C=N/Nc1nc(Nc2ccccc2)nc(Nc2ccccc2)n1 (stereo not given) | – | – | – | > 40 µM (active) | – |
| COc1ccc(-c2nn(-c3ccccc3)cc2/C=N/NC(=O)c2ccc3c(c2)OCO3)cc1 | 18.5 µM (active) | 18.3 µM (active) | 12.2 µM (active) | – | AC50 [9]: 2.24 µM (inconclusive) |
| C/C(=N\NC(=O)CN1CCCCC1)c1cccc([N+](=O)[O-])c1 | 26.9 µM (active) | 13.6 µM (active) | 9.5 µM (active) | – | – |
| COc1ccc2c3c([nH]c2c1)[C@H](CO)N(Cc1cccc(Cl)c1)CC31CCN(C(C)=O)CC1 | – | – | – | – | AC50 [10]: 4.26 µM (active) |
